Here are results for 14 molecules from PubChem BioAssay AID248 (DTP/NCI, 2004).

This experiment relates to L1210 leukemia ip in BDF1 mice, survival T/C. Put plainly: NCI In Vivo Anticancer Drug Screen. Data for tumor model L1210 Leukemia (intraperitoneal) in B6D2F1 (BDF1) mice. Particulars: endpoint: mean survival time, higher = longer survival. The gist of the method: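 Transplanted-tumor mice were given test agent; controls received vehicle only. Survival readings from the two groups were divided (treated over control).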

Where [1] appears, read: dose: 100.0 mg/kg/injection, schedule: Q01DX009 (ip), vehicle: saline with Tween-80.
[2] abbreviates: dose: 200.0 mg/kg/injection, schedule: Q01DX009 (ip), vehicle: saline with Tween-80.

Toxic doses and inconclusive results are not listed. Numbered stars: 1 amine (or outer) side, 2 acyl side, 3 side chain; on linkers, the order of the positions; unused ones are H or OH. Bridge positions count the residues as written; N and C are the ends. Square brackets hold non-standard residues; d marks the D form. Peptide text beside a SMILES is read from it. I, II: the chains in the order shown. Actinocin(9to1) = Cc1c2oc3c(C)ccc(C(=O)[*:1])c3nc-2c(C(=O)[*:2])c(N)c1=O; NMeV = CN[CH](C(=O)O)C(C)C; Sar = CNCC(=O)O

`Cc1c2oc3c(C)ccc(C(=O)NC4C(=O)NC(C(C)C)C(=O)N(C)CC(=O)N(C)CC(=O)N(C)C(C(C)C)C(=O)OC4C)c3nc-2c(C(=O)NC2C(=O)NC(C(C)C)C(=O)N(C)CC(=O)N(C)CC(=O)N(C)C(C(C)C)C(=O)OC2C)c(N)c1=O` (stereo not drawn) (I: TV[Sar][Sar][NMeV] / II: TV[Sar][Sar][NMeV]; ester I:1-I:C, II:1-II:C; linker I:N-II:N via Actinocin(9to1); configuration not given here): the T/C is 94 % of control (dose: 0.05 mg/kg/injection, schedule: Q01DX009 (ip), vehicle: other); 108 % of control (dose: 0.1 mg/kg/injection, schedule: Q01DX009 (ip), vehicle: other); 106 % of control (dose: 0.2 mg/kg/injection, schedule: Q01DX009 (ip), vehicle: other); 115 % of control (dose: 0.4 mg/kg/injection, schedule: Q01DX009 (ip), vehicle: other); 105 % of control (dose: 0.5 mg/kg/injection, schedule: Q01DX001 (ip), vehicle: saline + alcohol); 120 % of control (dose: 0.8 mg/kg/injection, schedule: Q01DX009 (ip), vehicle: other). Also, the T/C was 112 % of control (dose: 1.0 mg/kg/injection, schedule: Q01DX001 (ip), vehicle: saline + alcohol); 92 % of control (dose: 1.6 mg/kg/injection, schedule: Q01DX009 (ip), vehicle: other); 116 % of control (dose: 2.0 mg/kg/injection, schedule: Q01DX001 (ip), vehicle: saline + alcohol); 113 % of control (dose: 4.0 mg/kg/injection, schedule: Q01DX001 (ip), vehicle: saline + alcohol); 105 % of control (dose: 62.5 micrograms/kg/injection, schedule: Q01DX009 (ip), vehicle: saline + alcohol); 112 % of control (dose: 125.0 micrograms/kg/injection, schedule: Q01DX009 (ip), vehicle: saline + alcohol). Also, the T/C is, setting by setting: (dose: 188.0 micrograms/kg/injection, schedule: Q04DX003 (ip), vehicle: saline + alcohol) 107 % of control; (dose: 250.0 micrograms/kg/injection, schedule: Q01DX009 (ip), vehicle: saline + alcohol) 119 % of control; (dose: 375.0 micrograms/kg/injection, schedule: Q04DX003 (ip), vehicle: saline + alcohol) 106 % of control; (dose: 750.0 micrograms/kg/injection, schedule: Q04DX003 (ip), vehicle: saline + alcohol) 112 % of control; (dose: 1500.0 micrograms/kg/injection, schedule: Q04DX003 (ip), vehicle: saline + alcohol) 119 % of control.

Turning to `CN(CSc1c(Cl)c(Cl)c(Cl)c(Cl)c1Cl)c1ccccc1`, the T/C is 103 % of control (dose: 100.0 mg/kg/injection, schedule: Q04DX002 (ip), vehicle: Klucel (hydroxypropylcellulose) (HPC)); 98 % of control (dose: 200.0 mg/kg/injection, schedule: Q04DX002 (ip), vehicle: Klucel (hydroxypropylcellulose) (HPC)); 93 % of control (dose: 400.0 mg/kg/injection, schedule: Q04DX002 (ip), vehicle: Klucel (hydroxypropylcellulose) (HPC)).

As for `Nc1nc(N)c(N=Nc2ccccc2S(=O)(=O)O)c(N)n1`, the T/C runs as follows: (dose: 100.0 mg/kg/injection, schedule: Q01DX001 (ip), vehicle: saline) 105 % of control; (dose: 200.0 mg/kg/injection, schedule: Q01DX001 (ip), vehicle: saline) 89 % of control; (dose: 400.0 mg/kg/injection, schedule: Q01DX001 (ip), vehicle: saline) 96 % of control.

Consider `Cc1c(Cl)cccc1NC(=O)CCl`, for which the T/C under setting [1] was 97 % of control and the T/C under setting [2] was 103 % of control.

Consider `O=C(Nc1ccc(S(=O)(=O)Nc2ncccn2)cc1)c1ccc(C(=O)Nc2ccc(S(=O)(=O)Nc3ncccn3)cc2)cc1`, for which the T/C (dose: 50.0 mg/kg/injection, schedule: Q01DX015 (ip), vehicle: methylcellulose (MC)) was 100 % of control; the T/C (dose: 100.0 mg/kg/injection, schedule: Q01DX015 (ip), vehicle: methylcellulose (MC)) is 103 % of control; the T/C (dose: 200.0 mg/kg/injection, schedule: Q01DX015 (ip), vehicle: methylcellulose (MC)) was 97 % of control; the T/C (dose: 400.0 mg/kg/injection, schedule: Q01DX015 (ip), vehicle: methylcellulose (MC)) is 106 % of control.

In the case of `CCCC(CCC#N)C(=O)c1ccccc1` (stereo not drawn), the T/C is, setting by setting: (dose: 100.0 mg/kg/injection, schedule: Q01DX001 (ip), vehicle: Klucel (hydroxypropylcellulose) (HPC)) 91 % of control; (dose: 200.0 mg/kg/injection, schedule: Q01DX001 (ip), vehicle: Klucel (hydroxypropylcellulose) (HPC)) 98 % of control; (dose: 400.0 mg/kg/injection, schedule: Q01DX001 (ip), vehicle: Klucel (hydroxypropylcellulose) (HPC)) 95 % of control.

For `O=C1CC(c2ccc(Cl)cc2)NC(c2ccc(Cl)cc2)C1` (stereo not drawn), the T/C reads like this: under setting [1], 101 % of control; (dose: 100.0 mg/kg/injection, schedule: Q04DX003 (ip), vehicle: saline with Tween-80) 93 % of control; under setting [2], 101 % of control; (dose: 200.0 mg/kg/injection, schedule: Q04DX003 (ip), vehicle: saline with Tween-80) 96 % of control; (dose: 400.0 mg/kg/injection, schedule: Q01DX009 (ip), vehicle: saline with Tween-80) 103 % of control; (dose: 400.0 mg/kg/injection, schedule: Q04DX003 (ip), vehicle: saline with Tween-80) 98 % of control.

Take `C=CC1(C)CCC2C(=CCC3C(C)(COC4OC(CO)C(O)C(O)C4O)C(O)CCC23C)C1` (stereo not drawn): the T/C by setting is: (dose: 75.0 mg/kg/injection, schedule: Q01DX001 (ip), vehicle: saline) 102 % of control; (dose: 150.0 mg/kg/injection, schedule: Q01DX001 (ip), vehicle: saline) 98 % of control.

Regarding `[O-][n+]1ccccc1Cc1ccccc1`, the T/C (dose: 50.0 mg/kg/injection, schedule: Q01DX009 (ip), vehicle: saline with Tween-80) was 90 % of control; the T/C under setting [1] is 90 % of control; the T/C (dose: 100.0 mg/kg/injection, schedule: Q04DX002 (ip), vehicle: saline with Tween-80) was 97 % of control; the T/C under setting [2] is 90 % of control; the T/C (dose: 200.0 mg/kg/injection, schedule: Q04DX002 (ip), vehicle: saline with Tween-80) was 101 % of control; the T/C (dose: 400.0 mg/kg/injection, schedule: Q04DX002 (ip), vehicle: saline with Tween-80) was 101 % of control.

As for `CC1(C)OC2C(CO)OC(OCc3ccccc3)C2O1` (stereo not drawn), the T/C was 100 % of control (dose: 50.0 mg/kg/injection, schedule: Q04DX003 (ip), vehicle: saline); 91 % of control (dose: 100.0 mg/kg/injection, schedule: Q04DX003 (ip), vehicle: saline); 105 % of control (dose: 200.0 mg/kg/injection, schedule: Q04DX003 (ip), vehicle: saline); 88 % of control (dose: 400.0 mg/kg/injection, schedule: Q04DX003 (ip), vehicle: saline).

With `O=C1NC(c2cccc(Cl)c2)N2C(=O)NC(c3cccc(Cl)c3)N12` (stereo not drawn), the T/C runs as follows: (dose: 100.0 mg/kg/injection, schedule: Q01DX009 (ip), vehicle: gum acacia) 93 % of control; (dose: 100.0 mg/kg/injection, schedule: Q04DX003 (ip), vehicle: gum acacia) 92 % of control; (dose: 200.0 mg/kg/injection, schedule: Q04DX003 (ip), vehicle: gum acacia) 103 % of control; (dose: 400.0 mg/kg/injection, schedule: Q01DX009 (ip), vehicle: gum acacia) 90 % of control; (dose: 400.0 mg/kg/injection, schedule: Q04DX003 (ip), vehicle: gum acacia) 92 % of control.

As for `CC(=O)OCC1CCC(NC(=O)N(CCF)N=O)CC1` (stereo not drawn), the T/C (dose: 9.0 mg/kg/injection, schedule: Q01DX001 (ip), vehicle: saline with Tween-80) is 106 % of control; the T/C (dose: 13.0 mg/kg/injection, schedule: Q01DX001 (ip), vehicle: saline with Tween-80) is 110 % of control; the T/C (dose: 20.0 mg/kg/injection, schedule: Q01DX001 (ip), vehicle: saline with Tween-80) was 100 % of control; the T/C (dose: 45.0 mg/kg/injection, schedule: Q01DX001 (ip), vehicle: saline with Tween-80) was 353 % of control.

Regarding `CCCCCCC(=O)/C=C\c1ccc([N+](C)(C)C)cc1`, the T/C was 93 % of control (dose: 25.0 mg/kg/injection, schedule: Q01DX009 (sc), vehicle: steriod suspending solution); 94 % of control (dose: 25.0 mg/kg/injection, schedule: Q04DX003 (sc), vehicle: steriod suspending solution); 97 % of control (dose: 50.0 mg/kg/injection, schedule: Q01DX009 (sc), vehicle: steriod suspending solution); 92 % of control (dose: 50.0 mg/kg/injection, schedule: Q04DX003 (sc), vehicle: steriod suspending solution); 86 % of control (dose: 100.0 mg/kg/injection, schedule: Q01DX001 (sc), vehicle: steriod suspending solution); 106 % of control (dose: 100.0 mg/kg/injection, schedule: Q04DX003 (sc), vehicle: steriod suspending solution).

As to `Cc1ccc(-c2nc(-c3nccc4ccccc34)oc2-c2ccccc2)cc1`, the T/C by setting is: (dose: 100.0 mg/kg/injection, schedule: Q01DX009 (ip), vehicle: Klucel (hydroxypropylcellulose) (HPC)) 103 % of control; (dose: 200.0 mg/kg/injection, schedule: Q01DX009 (ip), vehicle: Klucel (hydroxypropylcellulose) (HPC)) 95 % of control; (dose: 400.0 mg/kg/injection, schedule: Q01DX009 (ip), vehicle: Klucel (hydroxypropylcellulose) (HPC)) 95 % of control.
